# Legend:
# Type in all cases: in vivo, Wistar rats
# [1] = test system: activated microglia in SNc, striatum and hippocampus of MPTP-lesioned rats; assay: OX-6 (MHC class II) immunostaining, density of activated microglia
# Procedure: (§1) Thirty-nine male Wistar rats (306.2±0.9 g; BioLASCO Taiwan Co., Ltd.) were used as experimental animals in the present invention. All experimental procedures were performed according to the NIH Guide for the Care and Use of Laboratory Animals and were approved by the Animal Care Committee of the Chung Shan Medical University (IACUC approval No.: 434). All animals underwent stereotaxic surgery and MPTP were injected into the substantia nigra pars compacta (SNc) in the animals to establish Parkinson's disease animal model. One day after the surgery, the rats received daily dose of intraperitoneal (i.p.) injections of D-cycloserine (DCS) (0, 5, or 10 mg/kg/day) or saline at 18:00 for 13 days. The animals were divided respectively into groups of experimental group 0 (E0), receiving MPTP+saline, experimental group 1 (E1), receiving MPTP+DCS 5 mg/kg/day, experimental group 2 (E2), receiving MPTP+DCS 10 mg/kg/day and Sham-operated group/control group (CR), receiving saline (1 ml/kg/day, i.p.) (also called control group or Sham+saline group). The descriptions of “control group, experimental group 0, experimental group 1 and experimental group 2” were used below.
# (§2) For the brain surgery, all animals were intraperitoneal injected with Zoletil (2 mg/kg; Virbac, Carros, Franc) and received stereotaxic surgery after anesthetization. MPTP-HCl (1 μmol in 2 μl of saline; Sigma, Mo., USA) (Da Cunha et al., Behav Brain Res, 2001, 124:9-18; Gevaerd et al., Brain Res Bull, 2001, 55: 101-6) or saline (2 μl) were microinjected into the substantia nigra pars compacta (SNc).
# One day after the test of episodic-like memory, rats were sacrificed under deep anesthesia by CO2. For histological assessment, 5-6 randomly selected rats per group were perfused cardiacly with 4% paraformaldehyde in phosphate-buffered saline (PBS), and the brains were removed rapidly and post-fixed in 20% sucrose solution with 4% paraformaldehyde at 4° C. The frozen coronal brain sections were cut into 30 μm and further immunostained with mouse monoclonal antibodies against rat tyrosine hydroxylase (TH) (1:2000; Zymade, USA) or rat MHC class II (OX-6; 1:200; BD Biosciences Pharmingen, CA, USA) at 4° C. overnight, identical to the method used in our previous report (Wang, Wu, Liou, et. al, Behav Neurosci, 2009). In sections containing hippocampus, neurons in the hippocampus was identified by Nissl staining method.
# A microscope (ZEISS AXioskop2, Germany) disposed with a CCD (Optronics, USA) and the Image Pro Plus Software 6.0 (Media Cybernetics, CA, USA) was used for observation. The three square areas (measuring 36,477, 18,769, and 2,354 μm^2) were applied respectively to determine the relative optical density of TH immunoreactivity in the striatum and the neuronal density in the SNc and hippocampal CA1 area. The images of TH staining were converted to the gray scale for measuring the density of DAergic projections. The gray level of a given area of interest was measured, and the background staining measured in non-immunoreactive corpus callosum was subtracted. […] The somas of TH immunoreactive neurons located in this area were counted. The density of activated microglia was measured, according to the methods described in the literature (Sugama S, et al., Brain Res, 2003, 964: 288-94). […] Then, the numbers of activated microglial cells in the SNc, striatum, and hippocampus were counted in the areas of interest (measuring 18,769, 36,477, and 18,769 μm^2, respectively). […]
# [2] = test system: MPTP-lesioned rats (Parkinson's disease animal model); assay: Episodic-like memory test in MPTP-lesioned rats
# Procedure: as §1, §2
# The episodic-like memory test was performed in an open field (60×60×40 cm, without roof allowing rats to aware external distal cues), 13 days after the MPTP lesion. The floor of the open field was divided into 9 areas of equal size. A video camera was mounted 160 cm above the center of the open field to record and analysis the behavior of rats. Two different sets of objects made of metal or plastic were used in the experiment. The objects weighed about 950 g and therefore, they were unmovable by the rats. The two objects differed in the diameter of base, height, color, shape, and surface texture (the metal object: column in shape, 6.5 cm in diameter, 12 cm high, silver-colored, smooth surface; the plastic object: cuboid in shape, a 7.5×5 cm cross section, 15 cm high, pellucid-colored, rough surface). One day before the test, rats were placed individually into the open field for twice and allowed to explore it (once for 5 min), with a 4 h interval, for adapting to the testing environment.
# The procedure of episodic-like memory test was consistent with previous reported research (Li and Chao., Neurobiol Learn Mem 2008; 89:192-8). The method comprised two sample trials and one testing trial. In the first sample trial, the rats were placed in the open field with four identical objects (FIG. 1A, upper left), and allowed to explore them for 5 min. After an interval of 60 min, the rats were put into the same open field again and received the second sample trial for 5 min, wherein the objects were replaced with another objects and the spatial configuration was changed (FIG. 1A, lower left). After an additional interval of 60 min, the rats received a testing trial, wherein two identical objects from sample trial 1 (the “old” objects; “O”) and two identical objects from sample trial 2 (the “recent” objects; “R”) were presented. In the testing trial, animals encountered a mixed set consisting of two “O” and two “R” objects. One object from each of the two sets of objects was placed in the “same” location as in the sample trials (Os and Rs). The other two objects were “displaced” to new locations (Od and Rd) (FIG. 1A, lower right). Time spent on exploring the objects was recorded.
# [3] = test system: pyramidal neurons in hippocampal CA1 area of MPTP-lesioned rats; assay: Nissl staining of hippocampal CA1 pyramidal cell layer, neuronal density; settings: DCS 10 mg/kg/day
# Procedure: Thirty-nine male Wistar rats (306.2±0.9 g; BioLASCO Taiwan Co., Ltd.) were used as experimental animals in the present invention. All experimental procedures were performed according to the NIH Guide for the Care and Use of Laboratory Animals and were approved by the Animal Care Committee of the Chung Shan Medical University (IACUC approval No.: 434). All animals underwent stereotaxic surgery and MPTP were injected into the substantia nigra pars compacta (SNc) in the animals to establish Parkinson's disease animal model. One day after the surgery, the rats received daily dose of intraperitoneal (i.p.) injections of D-cycloserine (DCS) (0, 5, or 10 mg/kg/day) or saline at 18:00 for 13 days. […]
# A microscope (ZEISS AXioskop2, Germany) disposed with a CCD (Optronics, USA) and the Image Pro Plus Software 6.0 (Media Cybernetics, CA, USA) was used for observation. […] The gray level of a given area of interest was measured, and the background staining measured in non-immunoreactive corpus callosum was subtracted. […] The somas of TH immunoreactive neurons located in this area were counted. The density of activated microglia was measured, according to the methods described in the literature (Sugama S, et al., Brain Res, 2003, 964: 288-94). […]
# [4] = test system: DAergic neurons in striatum and SNc of MPTP-lesioned rats; assay: Tyrosine hydroxylase (TH) immunostaining of striatum and SNc, image analysis
# Procedure: as §1, §2
# One day after the test of episodic-like memory, rats were sacrificed under deep anesthesia by CO2. For histological assessment, 5-6 randomly selected rats per group were perfused cardiacly with 4% paraformaldehyde in phosphate-buffered saline (PBS), and the brains were removed rapidly and post-fixed in 20% sucrose solution with 4% paraformaldehyde at 4° C. […]
# A microscope (ZEISS AXioskop2, Germany) disposed with a CCD (Optronics, USA) and the Image Pro Plus Software 6.0 (Media Cybernetics, CA, USA) was used for observation. […] The gray level of a given area of interest was measured, and the background staining measured in non-immunoreactive corpus callosum was subtracted. […] The somas of TH immunoreactive neurons located in this area were counted. The density of activated microglia was measured, according to the methods described in the literature (Sugama S, et al., Brain Res, 2003, 964: 288-94). […] Then, the numbers of activated microglial cells in the SNc, striatum, and hippocampus were counted in the areas of interest (measuring 18,769, 36,477, and 18,769 μm^2, respectively). […]
compound,measurement,setting,value
"N[C@@H]1CONC1=O [DCS, D-4-amino-3-isoxazolidone]",MPTP-induced microglial activation in the SNc,[1]; DCS 5 mg/kg/day,suppressed
same,MPTP-induced microglial activation in the hippocampus,[1]; DCS 5 mg/kg/day,suppressed
same,MPTP-induced microglial activation in the SNc,[1]; DCS 10 mg/kg/day,suppressed
same,MPTP-induced microglial activation in the hippocampus,[1]; DCS 10 mg/kg/day,suppressed
same,microglial activation in the striatum,[1]; DCS 5 and 10 mg/kg/day groups vs other groups,no significant difference between the groups
same,function of episodic-like memory after MPTP lesion,[2]; DCS 10 mg/kg/day,recovered
same,"time exploring old object, same location (Os) vs different location (Od), paired t-test",[2]; MPTP+DCS 5 mg/kg/day (E1),had the trend of significance
same,"time exploring recent object, displaced (Rd) vs same place (Rs), paired t-test",[2]; MPTP+DCS 5 mg/kg/day (E1),no differences between exploring Rs and exploring Rd
same,total exploration time in the test trial,[2]; MPTP+DCS 5 mg/kg/day i.p. for 13 days (E1),54.4 ± 5.9 s
same,"time exploring recent object, displaced (Rd) vs same place (Rs), paired t-test","[2]; MPTP+DCS 10 mg/kg/day (E2), P<0.001",spent a longer time exploring the displaced object (Rd)
same,"time exploring old object, same location (Os) vs different location (Od), paired t-test","[2]; MPTP+DCS 10 mg/kg/day (E2), P<0.05",spent a longer time exploring the old object placed in the same location (Os)
same,total exploration time in the test trial,[2]; MPTP+DCS 10 mg/kg/day i.p. for 13 days (E2),25.4 ± 4.3 s
same,MPTP-induced decrease of neuronal density in the pyramidal cell layer of hippocampal CA1 area,[3],blocked
same,MPTP-induced reduction in relative optical density of TH immunoreactivity in the striatum,[4]; DCS 5 mg/kg/day,blocked
same,MPTP-induced reduction in the density of DAergic neurons in the SNc,[4]; DCS 5 mg/kg/day,blocked
same,MPTP-induced reduction in relative optical density of TH immunoreactivity in the striatum,[4]; DCS 10 mg/kg/day,blocked
same,MPTP-induced reduction in the density of DAergic neurons in the SNc,[4]; DCS 10 mg/kg/day,blocked
